Reference: patent publication US20060009478A1, “Methods for the treatment of back pain” (priority 2003, published 2006)

Test system: patients with moderate to severe chronic low back pain
Experiment: Pain intensity (daily diary, 11-point numerical scale), low back pain study with titration and 12-week fixed-dose period
Type: in vivo, human
Settings: for Pain intensity, change from baseline, MEAN (SD) / Pain intensity, percent change from baseline, MEAN (SD) / Pain intensity, actual value, MEAN (SD): LOCF imputation, average of last three days of dosing week; for Pain intensity, change from baseline, MEAN (SD) / Pain intensity, percent change from baseline, MEAN (SD) / Pain intensity, change from baseline, MAXIMUM / Pain intensity, change from baseline, MEDIAN / Pain intensity, change from baseline, MINIMUM / Pain intensity, percent change from baseline, MAXIMUM / Pain intensity, percent change from baseline, MEDIAN / Pain intensity, percent change from baseline, MINIMUM / Pain intensity, actual value, MEAN (SD) / Pain intensity, actual value, MAXIMUM / Pain intensity, actual value, MEDIAN / Pain intensity, actual value, MINIMUM: ITT population
Description: A multicenter, randomized, double-blind, active- and placebo-controlled study was designed and conducted.
In addition, adverse events and opioid-related adverse events were to be recorded in the daily diary.
For the pain intensity (PI) scale assessment, the patient was prompted with the question “How would you rate your overall pain intensity at this time?” and the PI score was recorded in the clinic at the Screening and Baseline Visits. Pain intensity was also assessed by prompting the patient with the questions “How would you rate your overall pain intensity during the past 24 hours?” and a daily PI diary score was recorded at bedtime. For both Pain Intensity prompts, the response was scored on an 11-point numerical scale (0=no pain and 10=severe pain).
The baseline average daily pain intensity score for each patient was calculated as the average of the daily bedtime pain intensity scores recorded during the 3 days immediately prior to baseline/start of titration period visit. The post-baseline average daily pain intensity scores were calculated as the average of the daily bedtime pain intensity scores recorded during the last 3 days of dosing prior to each visit. Missing data was imputed using the last-observation-carried-forward (LOCF) approach for efficacy variables in the fixed-dose period. If the first visit in the fixed-dose period was missing, the last value in the titration period was imputed forward. Unless indicated, all testing of statistical significance was two-sided, and a difference resulting in a p-value of equal to or less than 0.05 was considered statistically significant.
A primary efficacy endpoint was the percent change from baseline to the end of the fixed-dose period (Week 12) in average daily pain intensity. The percent change from baseline was calculated as [PI(baseline)−PI(fixed-dose)]/PI(baseline)*100. Data was summarized descriptively by treatment group. An analysis of covariance (ANCOVA) model including treatment and center as effects and baseline pain intensity as the covariate was used for global and pairwise inferences. Separate models were used to evaluate both the treatment by center and treatment by baseline pain intensity interaction terms.
A primary comparison of interest was oxycodone and naltrexone (e.g., BID or QID) versus oxycodone (e.g., QID). Secondary analyses included actual and percent change from baseline values of daily pain index, SF-12, and Oswestry disability index summarized descriptively by treatment group for both the titration and fixed-dose periods. Treatments were compared globally and in pairwise fashion at each visit in the fixed-dose period using an ANCOVA model that included treatment and center as effects and baseline pain intensity as the covariate. Separate models were used to evaluate both the treatment by center and treatment by baseline pain intensity interaction terms.

[1] = baseline to fixed dose week 1, LOCF
[2] = baseline to fixed dose week 2, LOCF
[3] = baseline to fixed dose week 3, LOCF
[4] = baseline to fixed dose week 4, LOCF
[5] = baseline to fixed dose week 5, LOCF
[6] = baseline to fixed dose week 6, LOCF

## COc1ccc2c3c1O[C@H]1C(=O)CC[C@@]4(O)[C@@H](C2)N(C)CC[C@]314 [OXY QID, oxycodone]
Baseline to fixed dose week 1
  Pain intensity, change from baseline, MEAN (SD): −3.6 (2.60)
  Pain intensity, percent change from baseline, MEAN (SD): −47.5 (33.12) percent
[1]
  Pain intensity, change from baseline, MAXIMUM: 3.0
  Pain intensity, change from baseline, MEDIAN: −3.7
  Pain intensity, change from baseline, MINIMUM: −9.7
  Pain intensity, percent change from baseline, MAXIMUM: 42.9%
  Pain intensity, percent change from baseline, MEDIAN: −52.4%
  Pain intensity, percent change from baseline, MINIMUM: −100.0%
Baseline to fixed dose week 2
  Pain intensity, change from baseline, MEAN (SD): −3.6 (2.59)
  Pain intensity, percent change from baseline, MEAN (SD): −47.1 (32.56) percent
[2]
  Pain intensity, change from baseline, MAXIMUM: 3.0
  Pain intensity, change from baseline, MEDIAN: −3.7
  Pain intensity, change from baseline, MINIMUM: −9.7
  Pain intensity, percent change from baseline, MAXIMUM: 42.9%
  Pain intensity, percent change from baseline, MEDIAN: −50.0%
  Pain intensity, percent change from baseline, MINIMUM: −100.0%
Baseline to fixed dose week 3
  Pain intensity, change from baseline, MEAN (SD): −3.7 (2.64)
  Pain intensity, percent change from baseline, MEAN (SD): −47.9 (33.29) percent
[3]
  Pain intensity, change from baseline, MAXIMUM: 3.0
  Pain intensity, change from baseline, MEDIAN: −4.0
  Pain intensity, change from baseline, MINIMUM: −9.7
  Pain intensity, percent change from baseline, MAXIMUM: 42.9%
  Pain intensity, percent change from baseline, MEDIAN: −54.2%
  Pain intensity, percent change from baseline, MINIMUM: −100.0%
Baseline to fixed dose week 4
  Pain intensity, change from baseline, MEAN (SD): −3.6 (2.68)
  Pain intensity, percent change from baseline, MEAN (SD): −47.4 (33.84) percent
[4]
  Pain intensity, change from baseline, MAXIMUM: 3.0
  Pain intensity, change from baseline, MEDIAN: −4.0
  Pain intensity, change from baseline, MINIMUM: −9.7
  Pain intensity, percent change from baseline, MAXIMUM: 42.9%
  Pain intensity, percent change from baseline, MEDIAN: −53.3%
  Pain intensity, percent change from baseline, MINIMUM: −100.0%
Baseline to fixed dose week 5
  Pain intensity, change from baseline, MEAN (SD): −3.6 (2.72)
  Pain intensity, percent change from baseline, MEAN (SD): −47.4 (34.44) percent
[5]
  Pain intensity, change from baseline, MAXIMUM: 3.0
  Pain intensity, change from baseline, MEDIAN: −4.0
  Pain intensity, change from baseline, MINIMUM: −9.7
  Pain intensity, percent change from baseline, MAXIMUM: 42.9%
  Pain intensity, percent change from baseline, MEDIAN: −52.4%
  Pain intensity, percent change from baseline, MINIMUM: −100.0%
Baseline to fixed dose week 6
  Pain intensity, change from baseline, MEAN (SD): −3.6 (2.70)
[6]
  Pain intensity, change from baseline, MAXIMUM: 3.0
  Pain intensity, change from baseline, MEDIAN: −4.0
  Pain intensity, change from baseline, MINIMUM: −9.7
Fixed dose week 1
  Pain intensity, actual value, MEAN (SD): 3.9 (2.53)
Fixed dose week 1, LOCF
  Pain intensity, actual value, MAXIMUM: 10.0
  Pain intensity, actual value, MEDIAN: 3.7
  Pain intensity, actual value, MINIMUM: 0.0
Fixed dose week 2
  Pain intensity, actual value, MEAN (SD): 3.9 (2.47)
Fixed dose week 2, LOCF
  Pain intensity, actual value, MAXIMUM: 10.0
  Pain intensity, actual value, MEDIAN: 3.7
  Pain intensity, actual value, MINIMUM: 0.0
Fixed dose week 3
  Pain intensity, actual value, MEAN (SD): 3.9 (2.52)
Fixed dose week 3, LOCF
  Pain intensity, actual value, MAXIMUM: 10.0
  Pain intensity, actual value, MEDIAN: 3.3
  Pain intensity, actual value, MINIMUM: 0.0
Fixed dose week 4
  Pain intensity, actual value, MEAN (SD): 3.9 (2.55)
Fixed dose week 4, LOCF
  Pain intensity, actual value, MAXIMUM: 10.0
  Pain intensity, actual value, MEDIAN: 3.3
  Pain intensity, actual value, MINIMUM: 0.0
Fixed dose week 5
  Pain intensity, actual value, MEAN (SD): 3.9 (2.59)
Fixed dose week 5, LOCF
  Pain intensity, actual value, MAXIMUM: 10.0
  Pain intensity, actual value, MEDIAN: 3.3
  Pain intensity, actual value, MINIMUM: 0.0
Fixed dose week 6
  Pain intensity, actual value, MEAN (SD): 3.9 (2.58)
Fixed dose week 6, LOCF, ITT
  Pain intensity percent change from baseline to fixed dose week 6, maximum: 42.9%
  Pain intensity percent change from baseline to fixed dose week 6, mean (SD): −47.5 (34.20) %
  Pain intensity percent change from baseline to fixed dose week 6, median: −51.9%
  Pain intensity percent change from baseline to fixed dose week 6, minimum: −100.0%
Fixed dose week 6, LOCF
  Pain intensity, actual value, MAXIMUM: 10.0
  Pain intensity, actual value, MEDIAN: 3.3
  Pain intensity, actual value, MINIMUM: 0.0
Fixed dose week 7, LOCF, ITT
  Pain intensity actual value at fixed dose week 7, maximum: 10.0
  Pain intensity actual value at fixed dose week 7, mean (SD): 4.0 (2.54)
  Pain intensity actual value at fixed dose week 7, median: 3.3
  Pain intensity actual value at fixed dose week 7, minimum: 0.0
  Pain intensity change from baseline to fixed dose week 7, maximum: 3.0
  Pain intensity change from baseline to fixed dose week 7, mean (SD): −3.6 (2.69)
  Pain intensity change from baseline to fixed dose week 7, median: −4.0
  Pain intensity change from baseline to fixed dose week 7, minimum: −9.7
  Pain intensity percent change from baseline to fixed dose week 7, maximum: 42.9%
  Pain intensity percent change from baseline to fixed dose week 7, mean (SD): −46.8 (34.05) %
  Pain intensity percent change from baseline to fixed dose week 7, median: −52.9%
  Pain intensity percent change from baseline to fixed dose week 7, minimum: −100.0%
Fixed dose week 8, LOCF, ITT
  Pain intensity actual value at fixed dose week 8, maximum: 10.0
  Pain intensity actual value at fixed dose week 8, mean (SD): 4.0 (2.57)
  Pain intensity actual value at fixed dose week 8, median: 3.3
  Pain intensity actual value at fixed dose week 8, minimum: 0.0
  Pain intensity change from baseline to fixed dose week 8, maximum: 3.0
  Pain intensity change from baseline to fixed dose week 8, mean (SD): −3.6 (2.67)
  Pain intensity change from baseline to fixed dose week 8, median: −3.7
  Pain intensity change from baseline to fixed dose week 8, minimum: −9.7
  Pain intensity percent change from baseline to fixed dose week 8, maximum: 42.9%
  Pain intensity percent change from baseline to fixed dose week 8, mean (SD): −46.5 (34.05) %
  Pain intensity percent change from baseline to fixed dose week 8, median: −52.4%
  Pain intensity percent change from baseline to fixed dose week 8, minimum: −100.0%
Fixed dose week 9, LOCF, ITT
  Pain intensity actual value at fixed dose week 9, maximum: 10.0
  Pain intensity actual value at fixed dose week 9, mean (SD): 3.9 (2.57)
  Pain intensity actual value at fixed dose week 9, median: 3.3
  Pain intensity actual value at fixed dose week 9, minimum: 0.0
  Pain intensity change from baseline to fixed dose week 9, maximum: 3.0
  Pain intensity change from baseline to fixed dose week 9, mean (SD): −3.6 (2.70)
  Pain intensity change from baseline to fixed dose week 9, median: −4.0
  Pain intensity change from baseline to fixed dose week 9, minimum: −9.7
  Pain intensity percent change from baseline to fixed dose week 9, maximum: 42.9%
  Pain intensity percent change from baseline to fixed dose week 9, mean (SD): −47.4 (34.17) %
  Pain intensity percent change from baseline to fixed dose week 9, median: −53.3%
  Pain intensity percent change from baseline to fixed dose week 9, minimum: −100.0%
Fixed dose week 10, LOCF, ITT
  Pain intensity actual value at fixed dose week 10, maximum: 10.0
  Pain intensity actual value at fixed dose week 10, mean (SD): 4.0 (2.54)
  Pain intensity actual value at fixed dose week 10, median: 3.7
  Pain intensity actual value at fixed dose week 10, minimum: 0.0
  Pain intensity change from baseline to fixed dose week 10, maximum: 3.0
  Pain intensity change from baseline to fixed dose week 10, mean (SD): −3.6 (2.66)
  Pain intensity change from baseline to fixed dose week 10, median: −3.7
  Pain intensity change from baseline to fixed dose week 10, minimum: −9.7
  Pain intensity percent change from baseline to fixed dose week 10, maximum: 42.9%
  Pain intensity percent change from baseline to fixed dose week 10, mean (SD): −46.8 (33.72) %
  Pain intensity percent change from baseline to fixed dose week 10, median: −52.0%
  Pain intensity percent change from baseline to fixed dose week 10, minimum: −100.0%
Fixed dose week 11, LOCF, ITT
  Pain intensity actual value at fixed dose week 11, maximum: 10.0
  Pain intensity actual value at fixed dose week 11, mean (SD): 3.9 (2.57)
  Pain intensity actual value at fixed dose week 11, median: 3.3
  Pain intensity actual value at fixed dose week 11, minimum: 0.0
  Pain intensity change from baseline to fixed dose week 11, maximum: 3.0
  Pain intensity change from baseline to fixed dose week 11, mean (SD): −3.7 (2.70)
  Pain intensity change from baseline to fixed dose week 11, median: −4.0
  Pain intensity change from baseline to fixed dose week 11, minimum: −9.7
  Pain intensity percent change from baseline to fixed dose week 11, maximum: 42.9%
  Pain intensity percent change from baseline to fixed dose week 11, mean (SD): −48.2 (34.19) %
  Pain intensity percent change from baseline to fixed dose week 11, median: −55.6%
  Pain intensity percent change from baseline to fixed dose week 11, minimum: −100.0%
Fixed dose week 12, LOCF, ITT
  Pain intensity actual value at fixed dose week 12, maximum: 10.0
  Pain intensity actual value at fixed dose week 12, mean (SD): 4.0 (2.53)
  Pain intensity actual value at fixed dose week 12, median: 3.7
  Pain intensity actual value at fixed dose week 12, minimum: 0.0
  Pain intensity change from baseline to fixed dose week 12, maximum: 3.0
  Pain intensity change from baseline to fixed dose week 12, mean (SD): −3.5 (2.65)
  Pain intensity change from baseline to fixed dose week 12, median: −3.7
  Pain intensity change from baseline to fixed dose week 12, minimum: −9.7
  Pain intensity percent change from baseline to fixed dose week 12, maximum: 42.9%
  Pain intensity percent change from baseline to fixed dose week 12, mean (SD): −46.2 (33.60) %
  Pain intensity percent change from baseline to fixed dose week 12, median: −52.0%
  Pain intensity percent change from baseline to fixed dose week 12, minimum: −100.0%
